# Reference: patent publication US7674789B2, “Compounds” (Glaxo Group Limited, priority 2005, dated 2010)
# Tests used:
# [1] = tested on: IL-6, IL-8, GM-CSF, RANTES and COX-2; conditions: a number of different cell types; cited from earlier work
# [2] = tested on: TGF-β-induced fibronectin and thrombospondin; conditions: Laping et al., 2002, Molec. Pharmacol. 62:58-64; cited from earlier work
# [3] = tested on: influx of neutrophils to the lung in LPS-challenged rats; assay: Rat LPS neutrophilia model; format: in vivo; conditions: intratracheal compound 15 min-24 hours before LPS aerosol (100 ug/ml, 15 min), lavage 4 hours later, in at least one of the range of conditions tested
# Method: Rat LPS Neutrophilia Model
# The effect of compounds on the influx of neutrophils to the lung in LPS-challenged rats is evaluated as follows. The test compound is suspended in one of the following solutions: 0.5% tween 80/PBS, 0.5% tween 80/saline, 10% EtOH/saline (with pH adjusted to 2.0, or 8.0 with HCl, or unadjusted), Saline @ pH 2.0, 6.5 or 8.0, 0.5% Tragacanth, 1% DMSO/20% Encapsin/Saline, or acidified 5% Tragacanth. The suspension process may be aided by the use of a glass homogenizer. For intratracheal administration, the animals are anesthetized with inhaled isoflurane and placed in a supine position, the trachea is intubated with a steel gavage needle (1.5 inch, 22 gauge, small ball) or a Penn-Century Microsprayer Aerosolizer (model IA-1B) and 200 ul of dosing solution is delivered. The animals are visually monitored during the recovery process, which typically occurs within two minutes.
# Rats treated with compound or vehicle (15 min-24 hours pretreatment) are exposed to an LPS aerosol (100 ug/ml) for 15 min. Four hours later the rats are euthanized with pentobarbital (100 mg/kg, i.p.) and the airways are lavaged with 5 washes of 5 ml of phosphate buffered saline. The harvested cells are stained (Diffquick) and counted to determine total and differential cell data. In a typical study, macrophages represent 40-70% of the total cells, and polymorphonuclear cells 30-60% of the total cells. Inhibition of neutrophil levels relative to no compound controls is calculated based on the differential counts.
# The assay has varying conditions, such as concentration, pretreat time, form of the compound (crystalline, amorphous, salts, micronised), and a wet or dry application of the compound. The data is obtained as % inhibition using a particular concentration and pretreat time.
SMILES,inhibition of neutrophilia (neutrophil influx to the lung) [3],other results
C[S+]([O-])c1ccc(-c2nc(-c3ccncc3)c(-c3ccc(F)cc3)[nH]2)cc1 (stereo not drawn) [SB-203580],,"decreasing the synthesis of pro-inflammatory proteins including IL-6, IL-8, GM-CSF, RANTES and COX-2 [1]: effective"
COc1nccc(-c2c(-c3ccc(F)cc3)ncn2C2CCNCC2)n1 [SB-242235],,effect on TGF-β-induced increases in fibronectin and thrombospondin [2]: inhibited
"Cc1ccc(C(=O)NC(C)C)cc1-c1nc(NCCN(C)C)nc2c1CNC(=O)N2c1c(F)cccc1F [Example 37, 3-(8-(2,6-difluorophenyl)-2-{[2-(dimethylamino)ethyl]amino}-7-oxo-5,6,7,8-tetrahydropyrimido[4,5-d]pyrimidin-4-yl)-4-methyl-N-(1-methylethyl)benzamide]",statistically nonsignificant inhibition of neutrophilia,
"Cc1ccc(C(=O)Nc2nccs2)cc1-c1nc(NCCCN(C)C)nc2c1CNC(=O)N2c1c(F)cccc1F [Example 119, 3-(8-(2,6-difluorophenyl)-2-{[3-(dimethylamino)propyl]amino}-7-oxo-5,6,7,8-tetrahydropyrimido[4,5-d]pyrimidin-4-yl)-4-methyl-N-1,3-thiazol-2-ylbenzamide]",statistically significant inhibition of neutrophilia,
"CNC(=O)c1ccc(C)c(-c2nc(N(C)CCCN(C)C)nc3c2CNC(=O)N3c2c(F)cccc2F)c1 [Example 174, 3-{8-(2,6-difluorophenyl)-2-[[3-(dimethylamino)propyl](methyl)amino]-7-oxo-5,6,7,8-tetrahydropyrimido[4,5-d]pyrimidin-4-yl}-N,4-dimethylbenzamide]",inactive,
"Cc1ccc(C(=O)Nc2ccc(F)cc2)cc1-c1nc(NC2CCN(C)CC2)nc2c1CNC(=O)N2c1c(F)cccc1F [Example 39, 3-{8-(2,6-difluorophenyl)-2-[(1-methyl-4-piperidinyl)amino]-7-oxo-5,6,7,8-tetrahydropyrimido[4,5-d]pyrimidin-4-yl}-N-(4-fluorophenyl)-4-methylbenzamide]",statistically nonsignificant inhibition of neutrophilia,
"Cc1ccc(C(=O)Nc2ccc(C)c(-c3nc(N(C)C)nc4c3CNC(=O)N4c3c(F)cccc3F)c2)cc1F [Example 28, N-{3-[8-(2,6-difluorophenyl)-2-(dimethylamino)-7-oxo-5,6,7,8-tetrahydropyrimido[4,5-d]pyrimidin-4-yl]-4-methylphenyl}-3-fluoro-4-methylbenzamide]",statistically nonsignificant inhibition of neutrophilia,
"Cc1ccc(C(=O)Nc2nccs2)cc1-c1nc(NCCN(C)C)nc2c1CNC(=O)N2c1c(F)cccc1F [118(c), 3-(8-(2,6-difluorophenyl)-2-{[2-(dimethylamino)ethyl]amino}-7-oxo-5,6,7,8-tetrahydropyrimido[4,5-d]pyrimidin-4-yl)-4-methyl-N-1,3-thiazol-2-ylbenzamide]",statistically significant inhibition of neutrophilia,
"Cc1ccc(C(=O)Nc2ccc(F)cc2)cc1-c1nc(N2CCC(N3CCCC3)CC2)nc2c1CNC(=O)N2c1c(F)cccc1F [86(c), 3-{8-(2,6-difluorophenyl)-7-oxo-2-[4-(1-pyrrolidinyl)-1-piperidinyl]-5,6,7,8-tetrahydropyrimido[4,5-d]pyrimidin-4-yl}-N-(4-fluorophenyl)-4-methylbenzamide]",statistically nonsignificant inhibition of neutrophilia,
"CSc1nc(-c2cc(NC(=O)c3ccc(C)c(F)c3)ccc2C)c2c(n1)N(c1c(F)cccc1F)C(=O)NC2 [23(c), N-{3-[8-(2,6-difluorophenyl)-2-(methylthio)-7-oxo-5,6,7,8-tetrahydropyrimido[4,5-d]pyrimidin-4-yl]-4-methylphenyl}-3-fluoro-4-methylbenzamide]",inactive,
"CNC(=O)c1ccc(C)c(-c2nc(NCCCN(C)C)nc3c2CNC(=O)N3c2c(F)cccc2F)c1 [Example 166, 3-(8-(2,6-difluorophenyl)-2-{[3-(dimethylamino)propyl]amino}-7-oxo-5,6,7,8-tetrahydropyrimido[4,5-d]pyrimidin-4-yl)-N,4-dimethylbenzamide]",statistically nonsignificant inhibition of neutrophilia,
Fc1ccc(-c2nc3n(c2-c2ccncc2)CCS3)cc1 [SK&F 86002],,"decreasing the synthesis of pro-inflammatory proteins including IL-6, IL-8, GM-CSF, RANTES and COX-2 [1]: effective"
